Where “and” joins values, the source holds several entries; their conditions need not be identical. Identical values can stand only once. Like-named read-outs stand apart in the source and are kept apart here.
Assays:
MOLM-13 = test: Cell growth inhibition, 4-day proliferation assay, MOLM-13; type: cell-based; settings: read-out: Cell Viability (IC50, μM) MOLM-13
Protocol: (§1) The effect of representative Compounds of the Disclosure on cell viability was determined in a 4-day proliferation assay. Cells were maintained in the appropriate culture medium with 10% FBS at 37° C. and an atmosphere of 5% CO2. All the cell lines were used within three months of thawing fresh vials.
(§2) Cells were seeded in 96-well flat bottom (Corning COSTAR, Corning, N.Y., cat #3595) or white opaque cell culture plates (BD Falcon, cat #353296) at a density of 3,000-10,000 cells/well in 75 μl of culture medium. Compounds were serially diluted in the appropriate medium, and 75 μl of the diluted compounds were added to the appropriate wells of the cell plate. After the addition of compounds, the cells were incubated at 37° C. in an atmosphere of 5% CO2 for 4 days. Cell viability was determined using the CellTiter-Glo® Luminescent Cell Viability Assay Kit (Promega, Madison, Wis.) for leukemia cells and WST (2-(2-methoxy-4-nitrophenyl)-3-(4-nitrophenyl)-5-(2,4-disulfophenyl)-2H-tetrazolium, monosodium salt) Cell Counting-8 Kit (Dojindo Molecular Technologies, Inc., Rockville, Md.) for adhenrent cells according to the manufacturers' instructions. […]
(§3) For CellTiter-Glo assay (suspension cells), 100 μl of CellTiter-Glo® Reagent was added to each well, and then the plates were incubated at room temperature for 10-20 minutes. The luminescent signal was measured using a Tecan Infinite M1000 multimode microplate reader (Tecan, Morrisville, N.C.). The readings were normalized to the DMSO-treated cells and the IC50 was calculated by nonlinear regression (four parameters sigmoid fitted with variable slope, least squares fit, and no constraint) analysis using the GraphPad Prism 5 software. See US 2014/0256706.

RS4-11 = test: Cell growth inhibition, 4-day proliferation assay, RS4-11; type: cell-based; settings: read-out: Cell Viability (IC50, μM) RS4-11
Protocol: as §1, §2, §3

recombinant BRD4 BD1 = biological target: T1, recombinant BRD4 BD1 (Homo sapiens, UniProt O60885); test: Competitive fluorescence-polarization (FP) binding assay, BRD4 BD1
T1 construct: recombinant BRD4 BD1 and BRD4 BD2 proteins

recombinant BRD4 BD2 = biological target: T2, recombinant BRD4 BD2 (Homo sapiens, UniProt O60885); test: Competitive fluorescence-polarization (FP) binding assay, BRD4 BD2; settings: protein 6 nM, probe 1.5 nM
T2 construct: recombinant BRD4 BD1 and BRD4 BD2 proteins

[1] = 4 days incubation, MOLM-13 cells
[2] = Homo sapiens, MOLM-13, 96 h, 4 days incubation, MOLM-13 cells
[3] = Homo sapiens, RS4-11, 96 h, 4 days incubation, RS4-11 cells
[4] = FP competitive binding, protein 10 nM, probe 1.5 nM, read-out: IC50 (nM) BRD4 BD1
[5] = 4 days incubation, RS4-11 cells

Row | SMILES | IC50 (MOLM-13; [2]) | IC50 (RS4-11; [3]) | IC50 (recombinant BRD4 BD1; [4]) | IC50 (recombinant BRD4 BD2) | other results
1 | Cc1sc2c(c1Cc1ccccc1)COCc1nnc(C)n1-2 [Cpd. No. 4, 3-benzyl-2,9-dimethyl-4H,6H-thieno[2,3-e][1,2,4]triazolo[3,4-c][1,4]oxazepine] | 0.8 µM | 1.7 µM |  |  | IC50 (MOLM-13; [1]): 0.9 µM
2 | Cc1sc2c(c1-c1ccnc3ccccc13)COCc1nnc(C)n1-2 [Cpd. No. 5, 2,9-dimethyl-3-(quinolin-4-yl)-4H,6H-thieno[2,3-e][1,2,4]triazolo[3,4-c][1,4]oxazepine] |  | > 5 µM | 1370 nM | 1070 nM | 
3 | Cc1sc2c(c1Cc1ccccc1Cl)COCc1nnc(C)n1-2 [Cpd. No. 10, 3-(2-chlorobenzyl)-2,9-dimethyl-4H,6H-thieno[2,3-e][1,2,4]triazolo[3,4-c][1,4]oxazepine] | 3.4 µM |  | 263 nM | 312 nM | 
4 | Cc1sc2c(c1Cc1ccccc1)CN(C(=O)OCc1ccccc1)[C@H](C)c1nnc(C)n1-2 [Cpd. No. 16, benzyl (R)-3-benzyl-2,6,9-trimethyl-4H-thieno[3,2-f][1,2,4]triazolo[4,3-a][1,4]diazepine-5(6H)-carboxylate] | 2.8 µM |  | 229 nM | 326 nM | 
5 | CCOC(=O)N1Cc2c(sc(C)c2Cc2ccccc2)-n2c(C)nnc2[C@@H]1C [Cpd. No. 18, ethyl (S)-3-benzyl-2,6,9-trimethyl-4H-thieno[3,2-f][1,2,4]triazolo[4,3-a][1,4]diazepine-5(6H)-carboxylate] |  |  | 532 nM | 601 nM | IC50 (MOLM-13; Homo sapiens, MOLM-13, 96 h): 4.3 µM
6 | Cc1sc2c(c1Cc1ccccc1)CN(C)[C@@H](C)c1nnc(C)n1-2 [Cpd. No. 20, (S)-3-benzyl-2,5,6,9-tetramethyl-5,6-dihydro-4H-thieno[3,2-f][1,2,4]triazolo[4,3-a][1,4]diazepine] | 1.3 µM |  | 235 nM and 340 nM | 636 nM and 1210 nM | 
7 | C=C(c1ccccc1)c1c(C)sc2c1COCc1nnc(C)n1-2 [Cpd. No. 24, 2,9-dimethyl-3-(1-phenylvinyl)-4H,6H-thieno[2,3-e][1,2,4]triazolo[3,4-c][1,4]oxazepine] | 3.4 µM |  | 491 nM | 492 nM | 
8 | Cc1sc2c(c1Cc1ccccc1)CN(CC1CC1)[C@@H](C)c1nnc(C)n1-2 [Cpd. No. 27, (S)-3-benzyl-5-(cyclopropylmethyl)-2,6,9-trimethyl-5,6-dihydro-4H-thieno[3,2-f][1,2,4]triazolo[4,3-a][1,4]diazepine] | > 5 µM |  | 611 nM | 2610 nM | 
9 | Cc1sc2c(c1C(C)c1ccccc1)COCc1nnc(C)n1-2 (stereo not shown) [Cpd. No. 28, 2,9-dimethyl-3-(1-phenylethyl)-4H,6H-thieno[2,3-e][1,2,4]triazolo[3,4-c][1,4]oxazepine] | 4.7 µM |  | 772 nM | 749 nM | 
10 | Cc1nnc2n1-c1cccc(C(C)c3ccccc3)c1COC2 (stereo not shown) [Cpd. No. 46, 1-methyl-7-(1-phenylethyl)-4,6-dihydrobenzo[e][1,2,4]triazolo[3,4-c][1,4]oxazepine] | 2.9 µM |  | 807 nM | 268 nM | 
11 | Cc1nnc2n1-c1cccc(C3(c4ccccc4)CC3)c1COC2 [Cpd. No. 48, 1-methyl-7-(1-phenylcyclopropyl)-4,6-dihydrobenzo[e][1,2,4]triazolo[3,4-c][1,4]oxazepine] | 1.4 µM |  | 454 nM and 696 nM | 71.6 nM and 137 nM | 
12 | Cc1nnc2n1-c1cccc(C3=CCCc4ccccc43)c1COC2 [Cpd. No. 49, 7-(3,4-dihydronaphthalen-1-yl)-1-methyl-4,6-dihydrobenzo[e][1,2,4]triazolo[3,4-c][1,4]oxazepine] | > 5 µM |  | 2350 nM and 1820 nM | 271 nM and 175 nM | 
13 | Cc1nnc2n1-c1cccc(C3CCCc4ccccc43)c1COC2 (stereo not shown) [Cpd. No. 50, 1-methyl-7-(1,2,3,4-tetrahydronaphthalen-1-yl)-4,6-dihydrobenzo[e][1,2,4]triazolo[3,4-c][1,4]oxazepine] | 2.7 µM |  | 425 nM and 585 nM | 146 nM and 247 nM | 
14 | Cc1nnc2n1-c1ccc(C#CCCO)c(Cc3ccccc3)c1COC2 [Cpd. No. 84, 4-(7-benzyl-1-methyl-4,6-dihydrobenzo[e][1,2,4]triazolo[3,4-c][1,4]oxazepin-8-yl)but-3-yn-1-ol] | 0.7 µM | 1 µM |  |  | 
15 | Cc1nnc2n1-c1sc(C#Cc3cccnc3)c(Cc3ccccc3)c1COC2 [Cpd. No. 88, 3-benzyl-9-methyl-2-(pyridin-3-ylethynyl)-4,6-dihydrothieno[2,3-e][1,2,4]triazolo[3,4-c][1,4]oxazepine] |  |  |  |  | IC50 (MOLM-13; Homo sapiens, MOLM-13, 96 h): 0.12 µM; IC50 (RS4-11; Homo sapiens, RS4-11, 96 h): 0.25 µM
16 | Cc1nnc2n1-c1sc(CCCCO)c(Cc3ccccc3)c1COC2 [Cpd. No. 99, 4-(3-benzyl-9-methyl-4H,6H-thieno[2,3-e][1,2,4]triazolo[3,4-c][1,4]oxazepin-2-yl)butan-1-ol] | 2.9 µM | 2.2 µM |  |  | IC50 (recombinant BRD4 BD1; IC50 (nM) BRD4 BD1): 367 nM

Continued, in another order:

Row | IC50 (MOLM-13; [2]) | IC50 (RS4-11; [3]) | IC50 (recombinant BRD4 BD1; [4]) | IC50 (recombinant BRD4 BD2) | SMILES | other results
17 | 0.14 µM | 0.2 µM |  |  | Cc1nnc2n1-c1sc(C#Cc3cncn3C)c(Cc3ccccc3)c1COC2 [Cpd. No. 86, 3-benzyl-9-methyl-2-((1-methyl-H-imidazol-5-yl)ethynyl)-4,6-dihydrothieno[2,3-e][1,2,4]triazolo[3,4-c][1,4]oxazepine] | 
18 | 0.14 µM | 0.21 µM |  |  | Cc1nnc2n1-c1sc(C#Cc3ccncc3)c(Cc3ccccc3)c1COC2 [Cpd. No. 87, 3-benzyl-9-methyl-2-(pyridin-4-ylethynyl)-4,6-dihydrothieno[2,3-e][1,2,4]triazolo[3,4-c][1,4]oxazepine] | 
19 | 1.2 µM | 1.2 µM | 153 nM |  | Cc1nnc2n1-c1sc(-c3cn[nH]c3)c(Cc3ccccc3)c1COC2 [Cpd. No. 91, 3-benzyl-9-methyl-2-(1H-pyrazol-4-yl)-4H,6H-thieno[2,3-e][1,2,4]triazolo[3,4-c][1,4]oxazepine] | 
20 | 1.6 µM | 1.6 µM | 211 nM |  | Cc1nnc2n1-c1sc(-c3cnn(C)c3)c(Cc3ccccc3)c1COC2 [Cpd. No. 92, 3-benzyl-9-methyl-2-(1-methyl-H-pyrazol-4-yl)-4H,6H-thieno[2,3-e][1,2,4]triazolo[3,4-c][1,4]oxazepine] | 
21 | > 5 µM | > 5 µM |  |  | Cc1nnc2n1-c1sc(C3CC3)c(Cc3ccccc3)c1COC2 [Cpd. No. 93, 3-benzyl-2-cyclopropyl-9-methyl-4H,6H-thieno[2,3-e][1,2,4]triazolo[3,4-c][1,4]oxazepine] | 
22 | 0.3 µM | 0.4 µM |  |  | Cc1nnc2n1-c1sc(C#CCCO)c(Cc3ccccc3)c1COC2 [Cpd. No. 96, 4-(3-benzyl-9-methyl-4H,6H-thieno[2,3-e][1,2,4]triazolo[3,4-c][1,4]oxazepin-2-yl)but-3-yn-1-ol] | IC50 (MOLM-13; [1]): 0.25 µM; IC50 (RS4-11; [5]): 0.34 µM
23 | 2.4 µM | 2.3 µM | 208 nM |  | Cc1sc2c(c1Cc1cccc(F)c1)COCc1nnc(C)n1-2 [Cpd. No. 100, 3-(3-fluorobenzyl)-2,9-dimethyl-4H,6H-thieno[2,3-e][1,2,4]triazolo[3,4-c][1,4]oxazepine] | 
24 | > 5 µM | 3.6 µM | 832 nM |  | Cc1sc2c(c1Cc1cccc(C#N)c1)COCc1nnc(C)n1-2 [Cpd. No. 101, 3-(3-cyanobenzyl)-2,9-dimethyl-4H,6H-thieno[2,3-e][1,2,4]triazolo[3,4-c][1,4]oxazepine] | 
25 | 3.9 µM | 2.6 µM | 222 nM |  | Cc1sc2c(c1Cc1ccccc1F)COCc1nnc(C)n1-2 [Cpd. No. 102, 3-(2-fluorobenzyl)-2,9-dimethyl-4H,6H-thieno[2,3-e][1,2,4]triazolo[3,4-c][1,4]oxazepine] | 
26 |  | 0.18 µM | 5.4 nM and 10.5 nM and 12.9 nM | 112 nM and 142 nM and 127 nM | Cc1nnc2n1-c1sc(C#Cc3cnn(C)c3)c(Cc3ccc(F)cc3)c1COC2 [Cpd. No. 111, 3-(4-fluorobenzyl)-9-methyl-2-((1-methyl-H-pyrazol-4-yl)ethynyl)-4H,6H-thieno[2,3-e][1,2,4]triazolo[3,4-c][1,4]oxazepine] | IC50 (RS4-11; [5]): 0.25 µM
27 |  | 0.24 µM | 26.9 nM and 40 nM | 146 nM and 149 nM | Cc1nnc2n1-c1sc(C#CCCO)c(Cc3ccccc3)c1CO[C@H]2C [Cpd. No. 113, (S)-4-(3-benzyl-6,9-dimethyl-4H,6H-thieno[2,3-e][1,2,4]triazolo[3,4-c][1,4]oxazepin-2-yl)but-3-yn-1-ol] | IC50 (RS4-11; [5]): 0.45 µM
